# Patent US12024531B2, “Immunoproteasome inhibitors” (Principia Biopharma Inc., priority 2017, dated 2024)
# Tests used:
# [1] = target: PBMC LMP7 (Homo sapiens, UniProt P28062); assay: Inhibition of proteasome activity in cells (Proteasome-Glo), PBMC/LMP7; assay type: cell-based; conditions: 2 h incubation at 37° C.
# Protocol: (§1) The cell-based effects of a compound described herein on the immunoproteasome were determined by measuring inhibition of proteasome activity in cells using the Proteasome-Glo™ Cell-Based Reagent (Promega, Madison WI). The Proteasome-Glo™ assay contains a specific luminogenic proteasome substrate in a buffer optimized for cell permeabilization, proteasome activity, and luciferase activity. For the chymotrypsin-like activity (LMP7 and 05c), the peptide substrate is Suc-LLVY-aminoluciferin (Succinyl-leucine-leucine-valine-tyrosine-aminoluciferin). Cleavage of the substrate by proteasome results in luminescent signal which is proportional to the proteasome activity. The cell line THP-1 (a monocytic leukemia cell line enriched in immunoproteasome), the cell line HT-29 (a colorectal adenocarcinoma cell line enriched in constitutive proteasome), and primary human peripheral blood mononuclear cells (PBMC) were used to assess proteasome activity. Cells were seeded in a 96-well plate at 10,000 cells per well in RPMI 1640 high glucose medium with 10% fetal bovine serum (FBS). Compound dilutions were added to cells starting at a concentration of 5 uM and decreasing in tripling dilutions. The final DMSO concentration was 1%. The concentration range was adjusted as needed for compounds of different potencies. The cells treated with compounds were incubated for 2 h at 37° C. in 5% CO2. At the end of the 2 hour incubation period, cells were transferred to white 384 well assay plates. 20 uL of Proteasome-Glo™ Reagent was added to each well and incubated for 10 minutes at rt. The plate was read in the Analyst HT instrument (Molecular Devices, Sunnyvale, CA) using luminescence mode. The percent inhibition of activity was plotted as a function of log compound concentration. The IC50 was then calculated for each compound using Prism software from GraphPad Software Inc. (San Diego, CA).
# [2] = target: constitutive proteasome β5c subunit (Homo sapiens, UniProt P28074); assay: Caliper-based proteasome enzymatic activity assay, β5c; assay type: biochemical; conditions: human recombinant constitutive proteasome 0.3 nM, FAM peptide substrate 1 μM, rt 3 h
# [3] = target: immunoproteasome LMP2 subunit (Homo sapiens, UniProt P28065); assay: Caliper-based proteasome enzymatic activity assay, LMP2; assay type: biochemical; conditions: human recombinant immunoproteasome 0.3 nM, FAM peptide substrate 1 μM, rt 2 h
# [4] = target: PBMC LMP2 (Homo sapiens, UniProt P28065); assay: Inhibition of proteasome activity in cells (Proteasome-Glo), PBMC/LMP2; assay type: cell-based; conditions: 2 h incubation at 37° C.
# Protocol: as §1
# [5] = target: immunoproteasome LMP7/B5i subunit (Homo sapiens, UniProt P28062); assay: Caliper-based proteasome enzymatic activity assay, LMP7; assay type: biochemical; conditions: human recombinant immunoproteasome 0.3 nM, FAM peptide substrate 1 μM, rt 3 h
Structure (SMILES),IC50 [1] [nM],IC50 [2] [nM],IC50 [3] [nM],IC50 [4] [nM],IC50 [5] [nM]
"N#CC(=Cc1cccc(OCCC(=O)N[C@@H](Cc2ccccc2)B(O)O)c1)c1ccccn1 [Example 6, (R)-(1-(3-(3-(2-cyano-2-(pyridin-2-yl)vinyl)phenoxy)propanamido)-2-phenylethyl)boronic Acid]",7,89,84,> 5000,8
"CC(C)(C)NC(=O)C(C#N)=Cc1cccc(OCCC(=O)N[C@@H](CCc2ccccc2)B(O)O)c1 [Example 11, (R)-1-(3-(3-(3-(tert-butylamino)-2-cyano-3-oxoprop-1-enyl)phenoxy)propanamido)-3-phenylpropylboronic Acid]",3,310,> 5000,> 5000,2
"CC(C)(C)NC(=O)C(C#N)=Cc1cccc(OCCC(=O)N[C@@H](Cc2coc3ccccc23)B(O)O)c1 [Example 14, (R)-(2-(benzofuran-3-yl)-1-(3-(3-(3-(tert-butylamino)-2-cyano-3-oxoprop-1-en-1-yl)phenoxy)propanamido)ethyl)boronic Acid]",2,4,3240,510,0.2
"CN(C)C(=O)C(C#N)=Cc1cccc(COC(=O)N[C@@H](Cc2ccccc2)B(O)O)c1 [Example 15, (R)-(1-((((3-(2-cyano-3-(dimethylamino)-3-oxoprop-1-en-1-yl)benzyl)oxy)carbonyl)amino)-2-phenylethyl)boronic Acid]",18,3240,2920,> 5000,8
"N#CC(=Cc1cccc(OCCC(=O)N[C@@H](CCc2ccccc2)B(O)O)c1)c1ccccn1 [Example 21, (R)-(1-(3-(3-(2-cyano-2-(pyridin-2-yl)vinyl)phenoxy)propanamido)-3-phenylpropyl)boronic Acid]",8,260,> 5000,–,27
"N#CC(=Cc1cccc(CCOC(=O)N[C@@H](Cc2coc3ccccc23)B(O)O)c1)c1ccccn1 [Example 35, (R)-(2-(benzofuran-3-yl)-1-(((3-(2-cyano-2-(pyridin-2-yl)vinyl)phenethoxy)carbonyl)amino)ethyl)boronic Acid]",3,66,> 5000,–,2
"Cc1ccc(C[C@H](NC(=O)OCCc2cccc(C=C(C#N)C(=O)N(C)C)c2)B(O)O)cc1 [Example 50, (R)-(1-(((3-(2-cyano-3-(dimethylamino)-3-oxoprop-1-en-1-yl)phenethoxy)carbonyl)amino)-2-(p-tolyl)ethyl)boronic Acid]",4,1090,> 5000,–,1.5
"CCN(CC)C(=O)C(C#N)=Cc1cccc(CCOC(=O)N[C@@H](Cc2ccccc2)B(O)O)c1 [Example 52, (R)-(1-(((3-(2-cyano-3-(diethylamino)-3-oxoprop-1-en-1-yl)phenethoxy)carbonyl)amino)-2-phenylethyl)boronic Acid]",44,> 5000,> 5000,–,10.3
"N#CC(=Cc1cccc(CCOC(=O)N[C@@H](Cc2ccccc2)B(O)O)c1)c1ncccc1F [Example 54, (R)-(1-(((3-(2-cyano-2-(3-fluoropyridin-2-yl)vinyl)phenethoxy)carbonyl)amino)-2-phenylethyl)boronic Acid]",4,610,> 5000,–,3.3
"CCN(CC)C(=O)C(C#N)=Cc1cccc(CCOC(=O)N[C@@H](Cc2ccc(C)cc2)B(O)O)c1 [Example 55, (R)-(1-(((3-(2-cyano-3-(diethylamino)-3-oxoprop-1-en-1-yl)phenethoxy)carbonyl)amino)-2-(p-tolyl)ethyl)boronic Acid]",4,1180,> 5000,–,2
"CCN(CC)C(=O)C(C#N)=Cc1cccc(CCOC(=O)N[C@@H](Cc2coc3ccccc23)B(O)O)c1 [Example 58, (R)-(2-(benzofuran-3-yl)-1-(((3-(2-cyano-3-(diethylamino)-3-oxoprop-1-en-1-yl)phenethoxy)carbonyl)amino)ethyl)boronic Acid]",12,255,> 5000,–,1.7
"N#CC(=Cc1cccc(CCOC(=O)N[C@@H](Cc2ccccc2)B(O)O)c1)c1ncccn1 [Example 60, (R)-(1-(((3-(2-cyano-2-(pyrimidin-2-yl)vinyl)phenethoxy)carbonyl)amino)-2-phenylethyl)boronic Acid]",2,167,1020,–,1.1
"N#CC(=Cc1cccc(CCOC(=O)N[C@@H](Cc2ccccc2)B(O)O)c1)C(=O)N1C2CCC1COC2 [Example 67, ((1R)-1-(((3-(3-(3-oxa-8-azabicyclo[3.2.1]octan-8-yl)-2-cyano-3-oxoprop-1-en-1-yl)phenethoxy)carbonyl)amino)-2-phenylethyl)boronic Acid]",2,> 5000,2320,–,0.4
"CCN(C(=O)C(C#N)=Cc1cccc(CCOC(=O)N[C@@H](Cc2ccccc2)B(O)O)c1)C1CCOCC1 [Example 70, (R)-(1-(((3-(2-cyano-3-(ethyl(tetrahydro-2H-pyran-4-yl)amino)-3-oxoprop-1-en-1-yl)phenethoxy)carbonyl)amino)-2-phenylethyl)boronic Acid]",2,> 5000,4250,–,0.6
"CCN(C(=O)C(C#N)=Cc1cccc(CCOC(=O)N[C@@H](Cc2ccc(C)cc2)B(O)O)c1)C1CCOCC1 [Example 88, (R)-(1-(((3-(2-cyano-3-(ethyl(tetrahydro-2H-pyran-4-yl)amino)-3-oxoprop-1-en-1-yl)phenethoxy)carbonyl)amino)-2-(p-tolyl)ethyl)boronic Acid]",–,802,> 5000,–,1.2
"Cc1ccc(C[C@H](NC(=O)OCCc2cccc(C=C(C#N)C(=O)N3C4CCC3COC4)c2)B(O)O)cc1 [Example 89, ((1R)-1-(((3-(3-(3-oxa-8-azabicyclo[3.2.1]octan-8-yl)-2-cyano-3-oxoprop-1-en-1-yl)phenethoxy)carbonyl)amino)-2-(p-tolyl)ethyl)boronic Acid]",–,869,> 5000,–,0.5
"CCN(C)C(=O)C(C#N)=Cc1cccc(CCOC(=O)N[C@@H](Cc2ccccc2)B(O)O)c1 [Example 90, (R)-(1-(((3-(2-cyano-3-(ethyl(methyl)amino)-3-oxoprop-1-en-1-yl)phenethoxy)carbonyl)amino)-2-phenylethyl)boronic Acid]",–,> 5000,> 5000,–,4.6
"CN(CC(F)(F)F)C(=O)C(C#N)=Cc1cccc(CCOC(=O)N[C@@H](Cc2ccccc2)B(O)O)c1 [Example 91, (R)-(1-(((3-(2-cyano-3-(methyl(2,2,2-trifluoroethyl)amino)-3-oxoprop-1-en-1-yl)phenethoxy)carbonyl)amino)-2-phenylethyl)boronic Acid]",–,3840,> 5000,–,2.3
"Cc1ccc(C[C@H](NC(=O)OCCc2cccc(C=C(C#N)C(=O)N3[C@@H](C)COC[C@@H]3C)c2)B(O)O)cc1 [Example 92, ((R)-1-(((3-(2-cyano-3-((3S,5S)-3,5-dimethylmorpholino)-3-oxoprop-1-en-1-yl)phenethoxy)carbonyl)amino)-2-(p-tolyl)ethyl)boronic Acid]",–,532,> 5000,–,0.6
"CC1(C)COCCN1C(=O)C(C#N)=Cc1cccc(CCOC(=O)N[C@@H](Cc2coc3ccccc23)B(O)O)c1 [Example 93, (R)-(2-(benzofuran-3-yl)-1-(((3-(2-cyano-3-(3,3-dimethylmorpholino)-3-oxoprop-1-en-1-yl)phenethoxy)carbonyl)amino)ethyl)boronic Acid]",–,45,> 5000,–,1.1
"N#CC(=Cc1cccc(CCNC(=O)N[C@@H](Cc2coc3ccccc23)B(O)O)c1)c1ncccn1 [Example 94, (R)-(2-(benzofuran-3-yl)-1-(3-(3-(2-cyano-2-(pyrimidin-2-yl)vinyl)phenethyl)ureido)ethyl)boronic Acid]",–,15,> 5000,–,2.2
"CCN(CC)C(=O)C(C#N)=Cc1cc(C#N)cc(CCOC(=O)N[C@@H](Cc2ccc(C)cc2)B(O)O)c1 [Example 101, (R)-(1-(((3-cyano-5-(2-cyano-3-(diethylamino)-3-oxoprop-1-en-1-yl)phenethoxy)carbonyl)amino)-2-(p-tolyl)ethyl)boronic Acid]",–,440,> 5000,–,0.6
